Assay [1] concerns the target T1, human 5-HT1A receptor subtype (Homo sapiens, UniProt P08908).
T1 construct: expressed in transfected cells
T1 sequence (P08908 1-422): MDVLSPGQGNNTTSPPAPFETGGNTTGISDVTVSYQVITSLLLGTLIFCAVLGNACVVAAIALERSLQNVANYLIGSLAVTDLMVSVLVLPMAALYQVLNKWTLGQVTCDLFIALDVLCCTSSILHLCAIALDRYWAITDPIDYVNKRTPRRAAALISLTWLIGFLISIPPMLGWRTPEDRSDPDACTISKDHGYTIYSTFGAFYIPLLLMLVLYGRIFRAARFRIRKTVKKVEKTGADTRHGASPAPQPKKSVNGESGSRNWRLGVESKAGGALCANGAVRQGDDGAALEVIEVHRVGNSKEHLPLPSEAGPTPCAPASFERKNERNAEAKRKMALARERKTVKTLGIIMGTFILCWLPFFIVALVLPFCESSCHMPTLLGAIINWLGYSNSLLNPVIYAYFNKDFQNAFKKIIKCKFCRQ
Briefly: 5-HT1A receptor binding, [3H]8-OH-DPAT competition on h5-HT1A.CHO cell membranes. Conditions: [3H]8-OH-DPAT 1.5 nM.
Description: A stable Chinese hamster ovary cell line expressing the human 5-HT1A receptor subtype (h5-HT1A.CHO cells) was employed throughout this study. Cells were maintained in DMEM supplemented with 10% fetal calf serum, non-essential amino acids and penicillin/ streptomycin.
Cells were grown to 95-100% confluency as a monolayer before membranes were harvested for binding studies. Cells were gently scraped from the culture plates, transferred to centrifuge tubes, and washed twice by centrifugation (2000 rpm for 10 min., 4°C) in buffer (50 mM Tris; pH 7.5). The resulting pellets were aliquoted and placed at -80°C. On the day of assay, the cells were thawed on ice, and resuspended in buffer. Studies were conducted using [^3H]8-OH-DPAT as the radioligand. The binding assay was performed in 96 well microtiter plates in a final total volume of 250 µL of buffer. […] Non-specific binding was determined in the presence of 10 µM 5HT. Saturation analysis was conducted by using [^3H]8-OH-DPAT at concentrations ranging from 0.3-30 nM. Following a 30 minute incubation at room temperature, the reaction was terminated by the addition of ice cold buffer and rapid filtration using a M-96 Brandel Cell Harvester (Gaithersburg, MD) through a GF/B filter presoaked for 30 minutes in 0.5% polyethyleneimine.

A further assay concerns the target T2, serotonin transporter (Rattus norvegicus, UniProt P31652).
T2 construct: frontal cortical membranes prepared from male Sprague-Dawley rats; from tissue; host or cells: rat frontal cortex membranes (male Sprague-Dawley)
Briefly: Serotonin transporter affinity, 3H-paroxetine binding to frontal cortical membranes. As to conditions: read-out: ST (Ki, nM,). Details: species or system male Sprague-Dawley rats.

For a further assay, the target named is T3, 5-HT1A cloned receptor (Homo sapiens, UniProt P08908).
T3 construct: expressed in transfected cells
T3 sequence (P08908 1-422): T1 sequence (P08908 1-422)
Briefly: [35S]-GTPγS binding assay on 5-HT1A cloned receptor membrane fragments. Format: biochemical. As to conditions: maximum agonist response defined by excess 8-OH-DPAT. (In general: GTPγS resists hydrolysis and so accumulates on activated G proteins.)

As usually defined, the Ki is a dissociation constant, usually derived from enzyme kinetics or from competition with a known ligand. Usually Emax stands for the greatest response seen or fitted, relative to the assay's reference.

T2 sequence (P31652 whole entry): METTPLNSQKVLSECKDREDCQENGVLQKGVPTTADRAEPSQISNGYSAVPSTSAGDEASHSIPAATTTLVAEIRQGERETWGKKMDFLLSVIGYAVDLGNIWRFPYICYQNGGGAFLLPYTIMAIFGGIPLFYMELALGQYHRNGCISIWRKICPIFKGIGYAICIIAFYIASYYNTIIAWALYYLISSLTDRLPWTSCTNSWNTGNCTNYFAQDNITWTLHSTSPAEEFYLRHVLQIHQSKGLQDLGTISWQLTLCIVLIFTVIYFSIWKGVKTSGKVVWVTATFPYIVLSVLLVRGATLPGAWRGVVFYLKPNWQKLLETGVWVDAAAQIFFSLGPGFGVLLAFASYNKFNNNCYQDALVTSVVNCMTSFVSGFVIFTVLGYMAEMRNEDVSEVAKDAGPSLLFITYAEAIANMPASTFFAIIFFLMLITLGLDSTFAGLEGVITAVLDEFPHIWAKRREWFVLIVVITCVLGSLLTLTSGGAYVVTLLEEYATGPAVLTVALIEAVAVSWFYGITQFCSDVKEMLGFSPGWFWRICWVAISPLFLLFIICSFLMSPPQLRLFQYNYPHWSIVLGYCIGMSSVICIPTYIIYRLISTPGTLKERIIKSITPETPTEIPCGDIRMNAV
Description for 5-HT1A cloned receptor: When needed, membranes were rapidly thawed, centrifuged at 40,000 x g for 10 minutes and resuspended at 4 °C for 10 minutes in assay buffer (25 mM HEPES, 3 mM MgCl2, 100 mM NaCI, 1 mM EDTA, 10 uM GDP, 500 mM DTT, pH 8.0). These membranes were then incubated for 30 min at 30 °C with [^35S]GTPgS (1 nM) in the presence of vehicle, test compound (one to eight concentrations), or excess 8-OH-DPAT to define maximum agonist response. All reactions are terminated by the addition of ice cold Tris buffer followed by rapid filtration using a Tom Tech® filtration device to separate bound from free [^35S]GTPgS.
Description for serotonin transporter: Briefly, frontal cortical membranes prepared from male Sprague-Dawley rats were incubated with ^3H-paroxetine (0.1 nM) for 60 min at 25°C. […] All reactions are terminated by the addition of ice cold Tris buffer followed by rapid filtration using a Tom Tech filtration device to separate bound from free ^3H-paroxetine.

Take `O=c1[nH]c2cccc(OCCNCCCc3c[nH]c4ccccc34)c2[nH]1` [Example 2, 4-{2-[3-(1H-Indol-3-yl)-propylamino]-ethoxy}-1,3-dihydrobenzoimidazole-2-one]: the inhibitory constant (Ki) in assay [1] was 3.17 nM; on serotonin transporter, 2.09 nM. This compound also showed an Emax at 5-HT1A cloned receptor of 98.5%.
`O=C1Cc2c(OCCNCCCc3c[nH]c4ccccc34)ccc(F)c2N1` [Example 6, 7-Fluoro-4-{2-[3-(1H-indol-3-yl)-propylamino]-ethoxy}-1,3-dihydro-indol-2-one]: the Ki was 39.1 nM in assay [1] and 12 nM on serotonin transporter. Besides, the maximum response (Emax) on 5-HT1A cloned receptor was found to be 49.9%.
Take `S=c1[nH]c2cccc(OCCNCCCc3c[nH]c4ccccc34)c2[nH]1` [Example 3, 4-{2-[3-(1H-Indol-3-yl)-propylamino]-ethoxy}-1,3-dihydrobenzoimidazole-2-thione]: the inhibitory constant (Ki) in assay [1] worked out at 7.75 nM; at serotonin transporter it was 21 nM.

(Values after EP1068199B1, “N-ARYLOXYETHYL-INDOLY-ALKYLAMINES FOR THE TREATMENT OF DEPRESSION” (Wyeth, priority 1998, dated 1999).)
